Several values for one entry are separate records, joined by “and”; a condition that tells them apart may be missing. Equal entries are not always repeated. Where two headings read alike, the source gives them in different places.
Experiments:
mu opioid receptor = target: T1, mu opioid receptor (Rattus norvegicus, UniProt P33535); assay: Rat Brain Mu Opioid Receptor Binding Assay (and Version 2a, [3H]DAMGO); conditions: rat forebrain membranes, margin of error 10-20%
T1 construct: from tissue; host or cells: forebrain of male Wistar rats
T1 sequence (P33535 whole entry): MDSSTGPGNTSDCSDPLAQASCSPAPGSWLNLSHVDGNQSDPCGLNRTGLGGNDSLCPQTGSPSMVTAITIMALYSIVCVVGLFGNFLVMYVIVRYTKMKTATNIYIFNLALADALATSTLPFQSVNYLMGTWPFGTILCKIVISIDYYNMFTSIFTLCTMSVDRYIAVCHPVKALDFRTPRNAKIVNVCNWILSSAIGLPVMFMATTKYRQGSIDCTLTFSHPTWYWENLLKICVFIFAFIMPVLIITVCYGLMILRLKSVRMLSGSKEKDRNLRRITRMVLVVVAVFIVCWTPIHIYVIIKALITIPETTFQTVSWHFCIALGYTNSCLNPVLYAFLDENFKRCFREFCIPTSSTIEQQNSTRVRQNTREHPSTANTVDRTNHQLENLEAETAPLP
In short: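 Displacement of the mu-selective radioligand [3H]DAMGO (0.8 nM) measured by filtration and scintillation counting after 2.5 h at 25° C. Membranes came from male Wistar rat forebrain in Tris-HCl (50 mM, pH 7.4) plus 5 mM MgCl2; Ki derived from concentration–response, % inhibition for single doses.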

human mu opioid receptor = target: T2, human mu opioid receptor (Homo sapiens, UniProt P35372); assay: Human Mu Opioid Receptor Binding Assay (CHO membranes, 3H-Damgo)
T2 construct: purchased Perkin Elmer RBHOMM400UA; host or cells: Chinese Hamster Ovary cells (recombinant expression)
T2 sequence (P35372 whole entry): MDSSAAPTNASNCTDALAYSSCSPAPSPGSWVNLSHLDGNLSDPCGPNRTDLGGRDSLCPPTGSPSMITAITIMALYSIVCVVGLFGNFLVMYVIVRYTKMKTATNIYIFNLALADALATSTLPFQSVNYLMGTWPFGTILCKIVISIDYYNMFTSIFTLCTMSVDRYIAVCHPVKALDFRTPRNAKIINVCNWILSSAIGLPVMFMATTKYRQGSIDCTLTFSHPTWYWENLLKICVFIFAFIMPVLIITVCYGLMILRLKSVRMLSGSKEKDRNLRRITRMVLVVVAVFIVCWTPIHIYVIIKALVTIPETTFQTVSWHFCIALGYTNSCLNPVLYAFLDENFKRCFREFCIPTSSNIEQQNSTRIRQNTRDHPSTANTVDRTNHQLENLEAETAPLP
In short: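 Radioligand displacement of ³H-Damgo (diluted to 3.6 nM pre-mix) from recombinant human mu receptor in CHO membranes, 2 h, room temperature, 50 mM Tris pH 7.5 with 5 mM MgCl2. Bound label read by filtration and scintillation counting; 1 μM unlabelled Damgo defines nonspecific binding.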

[1] = target: T3, mu opioid receptor (CHO-hMOR cell membranes) (Homo sapiens, UniProt P35372); assay: Mu Opioid Receptor Functional Assay: [35S]GTPγS Binding in CHO-hMOR Cell Membranes, Versions 1 and 2; type: biochemical; conditions: for MOR GTP binding assay_v1 (% I): version 1, % inhibition of agonist-stimulated GTPγS binding; for MOR GTP assay_v1 % of Basal: version 1, basal binding = 100%; for MOR GTP binding assay_v2 (% I): version 2, % inhibition of agonist-stimulated GTPγS binding; for EC50: version 2, read-out: MOR GTP binding assay v2 EC50
T3 construct: purchased Receptor Biology, Inc. (Baltimore, Md.); host or cells: CHO cells (recombinant expression)
T3 sequence (P35372 whole entry): as above
In short: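 Agonist-stimulated [35S]GTPγS (0.5 nM) binding measured by SPA in human MOR CHO membranes, buffer pH 7.6 with 100 mM NaCl, 5 mM MgCl2. Antagonist mode: % inhibition of stimulation by 1 μM SNC80; agonist mode: EC50 fitted. Basal binding without agonist, non-specific with 10 μM cold GTPγS.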

SMILES | Ki (mu opioid receptor; read-out: r Ki μ) | Ki (human mu opioid receptor; read-out: hKi μ) | MOR GTP binding assay_v1 (% I) [1] [%] | MOR GTP assay_v1 % of Basal [1] [%] | MOR GTP binding assay_v2 (% I) [1] [%] | EC50 [1] [nM] | Ki (mu opioid receptor; r Ki μ) | Ki (human mu opioid receptor; hKi μ) [nM]
COc1ccc(CN(C(=O)[C@@H](N)Cc2c(C)cc(C(N)=O)cc2C)[C@@H](C)c2nc(-c3ccc(I)cc3)c[nH]2)cc1C(=O)O [Cpd 289] | 0.25 nM | 2.2 nM |  |  |  |  |  | 
Cc1cc(C(N)=O)cc(C)c1C[C@H](N)C(=O)N(Cc1ccccc1)[C@@H](C)c1nc(-c2ccccc2)c[nH]1 [Cpd 114] | 0.26 nM | 1.39 nM | 13.20 | 717.59 |  |  |  | 
Cc1cc(O)cc(C)c1C[C@H](N)C(=O)N(C)[C@@H](C)c1nc(-c2ccccc2)c[nH]1 [Cpd 207] | 0.05 nM and 0.08 nM and 0.1 nM |  |  |  |  |  |  | 
COc1ccc(CN(C(=O)[C@@H](N)Cc2c(C)cc(C(N)=O)cc2C)[C@@H](C)c2nc(-c3ccccc3)c[nH]2)cc1-c1nnn[nH]1 [Cpd 8] | 0.51 nM | 2.5 nM and 4.4 nM |  |  | 13.95 | 1.2 |  | 
COc1ccc(CN(C(=O)[C@@H](N)Cc2c(C)cc(C(N)=O)cc2C)[C@@H](C)c2nc(-c3ccccc3)c[nH]2)cc1OC [Cpd 75] | 0.51 nM | 2.6 nM |  |  |  |  |  | 
C[C@@H](c1nc(-c2ccccc2)c[nH]1)N(Cc1ccccc1)C(=O)[C@@H](N)Cc1ccc(O)cc1 [Cpd 219] | 0.87 nM | 16.2 nM | 1.00 | 611.00 |  |  |  | 
Cc1cc(O)cc(C)c1C[C@H](N)C(=O)N(Cc1nc(-c2ccc(F)cc2)c(C)[nH]1)C(C)C [Cpd 163] | 0.03 nM | 0.67 nM | 1.00 |  |  |  |  | 
COC(=O)c1cc(CN(C(=O)[C@@H](N)Cc2c(C)cc(C(N)=O)cc2C)[C@@H](C)c2nc(-c3ccccc3)c[nH]2)ccc1OC [Cpd 17] | 0.22 nM | 2.2 nM |  |  | 8.71 | 2.5 |  | 
COc1ccc(CN(Cc2nc(-c3ccccc3)c[nH]2)C(=O)[C@@H](N)Cc2ccc(C(N)=O)cc2)cc1C(=O)O [Cpd 5] | 1.19 nM | 3.9 nM |  |  | 7.87 | 71 |  | 
Cc1ccccc1-c1nc(CN(C(=O)[C@@H](N)Cc2c(C)cc(O)cc2C)C(C)C)[nH]c1C [Cpd 165] | 0.07 nM | 0.45 nM | 1.00 |  |  |  |  | 
CCN(C(=O)[C@@H](N)Cc1c(C)cc(O)cc1C)[C@@H](C)c1nc(-c2ccccc2)c[nH]1 [Cpd 216] | 0.04 nM |  | 1.00 | 666.00 |  |  |  | 
Cc1cc(C(N)=O)cc(C)c1C[C@H](N)C(=O)N(Cc1ccc(C(=O)O)cc1)[C@@H](C)c1nc(-c2ccccc2)c[nH]1 [Cpd 50] | 1.68 nM | 1.4 nM |  |  |  |  |  | 
Cc1cc(O)cc(C)c1C[C@H](N)C(=O)N(Cc1ccccc1)[C@@H](C)c1nc(-c2ccccc2)c[nH]1 [Cpd 218] | 0.03 nM | 3.92 nM | 1.00 | 599.00 |  |  |  | 
Cc1cc(O)cc(C)c1C[C@H](N)C(=O)N(C)Cc1nc(-c2ccccc2)c[nH]1 [Cpd 199] | 0.3 nM | 0.29 nM | 11.00 | 465.00 |  |  |  | 
CCN(C(=O)[C@@H](N)Cc1ccc(O)cc1)[C@H](C)c1nc(-c2ccccc2)c[nH]1 [Cpd 214] | 44 nM | 29 nM | 3.00 | 295.00 |  |  |  | 
Cc1cc(C(N)=O)cc(C)c1C[C@H](N)C(=O)N(Cc1ccc(C(=O)O)o1)[C@@H](C)c1nc(-c2ccccc2)c[nH]1 [Cpd 256] | 7.08 nM | 2 nM |  |  | 29.40 | 13 |  | 
COc1ccc(CN(C(=O)[C@@H](N)Cc2c(C)cc(O)cc2C)[C@@H](C)c2nc(-c3ccccc3)c[nH]2)cc1C(=O)O [Cpd 260] | 0.24 nM | 0.58 nM |  |  | 2.89 | 1.5 |  | 
COc1ccc(CN(C(=O)[C@@H](N)Cc2c(C)cc(C(N)=O)cc2C)[C@@H](C)c2nc(-c3ccccc3)c[nH]2)cc1C(=O)O [Cpd 18] |  |  |  |  | 7.54 | 1 | 0.75 nM and 1.1 nM | 1.7
Cc1cc(C(N)=O)cc(C)c1C[C@H](N)C(=O)N(Cc1cccc(C(=O)O)c1)[C@@H](C)c1nc(-c2ccccc2)c[nH]1 [Cpd 227] | 0.96 nM | 1.92 nM |  |  | 36.00 | 60.8 |  | 
CCN(C(=O)[C@@H](N)Cc1ccc(O)cc1)[C@@H](C)c1nc(-c2ccccc2)c[nH]1 [Cpd 215] | 0.43 nM | 1.5 nM | 1.00 | 606.00 |  |  |  | 

SMILES | Ki (mu opioid receptor; read-out: r Ki μ) | Ki (human mu opioid receptor; read-out: hKi μ) | MOR GTP binding assay_v1 (% I) [1] [%] | MOR GTP assay_v1 % of Basal [1] [%] | MOR GTP binding assay_v2 (% I) [1] [%] | EC50 [1] [nM] | Ki (mu opioid receptor; r Ki μ) | Ki (human mu opioid receptor; hKi μ) [nM]
Cc1cc(C(N)=O)cc(C)c1C[C@H](N)C(=O)N(Cc1cccc(-c2nnn[nH]2)c1)[C@@H](C)c1nc(-c2ccccc2)c[nH]1 [Cpd 242] | 0.59 nM | 2.35 nM |  |  |  |  |  | 
Cc1cc(O)cc(C)c1C[C@H](N)C(=O)N(Cc1nc(-c2ccccc2)c[nH]1)C1CCCCC1 [Cpd 190] | 2.61 nM |  | 70.00 |  |  |  |  | 
Cc1cc(O)cc(C)c1C[C@H](N)C(=O)N(Cc1nc(-c2ccccc2)c[nH]1)C(C)C [Cpd 194] | 0.06 nM | 0.13 nM | 1.00 | 558.00 |  |  |  | 
CCN(C(=O)[C@@H](N)Cc1c(C)cc(O)cc1C)[C@H](C)c1nc(-c2ccccc2)c[nH]1 [Cpd 217] | 1.08 nM |  | 1.00 | 599.00 |  |  |  | 
Cc1cc(O)cc(C)c1C[C@H](N)C(=O)N(Cc1cccc(C(=O)O)c1)[C@@H](C)c1nc(-c2ccccc2)c[nH]1 [Cpd 48] | 0.14 nM | 0.4 nM |  |  | 24.53 | 2.2 |  | 
Cc1cc(O)cc(C)c1C[C@H](N)C(=O)N(Cc1nc(-c2ccccc2)c(C)[nH]1)C(C)C [Cpd 166] | 0.03 nM and 0.07 nM | 0.39 nM and 0.5 nM | 1.00 |  |  |  |  | 
CC(C)N(C(=O)[C@@H](N)Cc1ccc(O)cc1)[C@@H](C)c1nc(-c2ccccc2)c[nH]1 [Cpd 225] | 0.73 nM | 1.4 nM | 1.00 | 657.00 |  |  |  | 
COC(=O)c1ccc(CN(C(=O)[C@@H](N)Cc2ccc(C(N)=O)cc2)[C@@H](C)c2nc(-c3ccccc3)c[nH]2)o1 [Cpd 303] | 3.87 nM | 3.8 nM |  |  | 1.00 | 30 |  | 
COc1ccc(CN(C(=O)[C@@H](N)Cc2ccc(O)cc2)[C@@H](C)c2nc(-c3ccccc3)c[nH]2)cc1C(=O)O [Cpd 261] | 0.79 nM | 2.58 nM and 1.3 nM |  |  | 5.88 | 17 |  | 
COc1ccc(CN(C(=O)[C@@H](N)Cc2ccc(C(N)=O)cc2)[C@@H](C)c2nc(-c3ccccc3)c[nH]2)cc1C(=O)O [Cpd 4] | 2.41 nM | 5.5 nM |  |  |  |  |  | 
Cc1cc(O)cc(C)c1C[C@H](N)C(=O)N(Cc1nc(-c2cc(C(F)(F)F)cc(C(F)(F)F)c2)c(C)[nH]1)C(C)C [Cpd 164] | 0.38 nM | 16.3 nM | 1.00 |  |  |  |  | 
C[C@H](c1nc(-c2ccccc2)c[nH]1)N(Cc1ccccc1)C(=O)[C@@H](N)Cc1ccc(O)cc1 [Cpd 221] | 0.36 nM | 0.42 nM | 13.00 | 427.00 |  |  |  | 
CC(C)N(Cc1nc(-c2ccccc2)c[nH]1)C(=O)[C@@H](N)Cc1ccc(O)cc1 [Cpd 195] | 9.29 nM | 9.8 nM | 34.00 | 378.00 |  |  |  | 
Cc1cc(O)cc(C)c1C[C@H](N)C(=O)N(Cc1nc(-c2ccccc2)c[nH]1)CC1CC1 [Cpd 192] | 0.09 nM | 0.62 nM | 30.00 | 383.00 |  |  |  | 
Cc1cc(O)cc(C)c1C[C@H](N)C(=O)N(Cc1ccnc2ccccc12)[C@@H](C)c1nc(-c2ccccc2)c[nH]1 [Cpd 246] | 0.15 nM | 5.63 nM |  |  | 21.30 | 4.5 |  | 
COC(=O)c1ccc(CN(C(=O)[C@@H](N)Cc2c(C)cc(C(N)=O)cc2C)[C@@H](C)c2nc(-c3ccccc3)c[nH]2)o1 [Cpd 257] | 1.22 nM | 3.4 nM |  |  | 10.96 | 3.9 |  | 
Cc1cc(O)cc(C)c1C[C@H](N)C(=O)N(C)[C@H](C)c1nc(-c2ccccc2)c[nH]1 [Cpd 206] | 0.2 nM |  | 1.00 | 446.00 |  |  |  | 
Cc1cc(O)cc(C)c1C[C@H](N)C(=O)N(C)[C@@H](C)c1nc(Cc2ccccc2)c[nH]1 [Cpd 205] | 0.14 nM |  | 1.00 | 566.00 |  |  |  | 
C[C@H](c1nc(-c2ccccc2)c[nH]1)N(C)C(=O)[C@@H](N)Cc1ccc(C(N)=O)cc1 [Cpd 203] | 29.1 nM | 13.7 nM | 20.00 | 331.00 |  |  |  | 
